Among the test systems are DLD-1; DMS-114; DMS-273; HOP-18; K562; KM-20L2; KM12; M19-MEL; NCI/ADR-RES; RXF 393; SN12C; SNB-19; SNB-75; DU-145; Hs-578T; PC-3; T47D; TK-10.
Common to all, as to experiment: NCI anticancer screen, dose series, 48 h

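Five concentrations, 48 hours, 96-well plates. At the GI50, growth is halved.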 Active and inactive are the calls of the source. Rule as the data show it: active = GI50 up to about 1.1 µM and inactive = higher.

For `O=C1CSc2sc(=S)sc2S1`, the GI50 is > 100000 nM (inactive) in the experiment with DLD-1; > 100000 nM (inactive) in the experiment with DMS-114; 95900 nM (inactive) in the experiment with DMS-273; > 84300 nM (inactive) with HOP-18; > 100000 nM (inactive) in the experiment on K562; > 100000 nM (inactive) in the experiment with KM-20L2. The GI50 was > 100000 nM (inactive) in the experiment on KM12; > 100000 nM (inactive) with M19-MEL; > 66800 nM (inactive) with NCI/ADR-RES; 43100 nM (inactive) in the experiment on RXF 393; > 70100 nM (inactive) with SN12C; > 100000 nM (inactive) with SNB-19. Moreover, in the experiment on SNB-75, the GI50 is > 100000 nM (inactive).
With `C/C=C1\NC(=O)[C@H]2CSSCCC=C[C@H](CC(=O)N[C@H](C(C)C)C(=O)N2)OC(=O)[C@H](C(C)C)NC1=O`, the GI50 was 21.7 nM (active) in the experiment on DLD-1; 2.91 nM (active) in the experiment on DMS-114; 6.73 nM (active) in the experiment on DMS-273; 0.0455 nM (active) in the experiment on DU-145; 4.12 nM (active) in the experiment with HOP-18; 0.0361 nM (active) in the experiment on Hs-578T. Further, the GI50 was 2.88 nM (active) in the experiment on KM-20L2; 0.154 nM (active) in the experiment with KM12; 2.52 nM (active) in the experiment on M19-MEL; 61.9 nM (active) with NCI/ADR-RES; 0.0488 nM (active) in the experiment on PC-3; 0.8 nM (active) with RXF 393. In addition, the GI50 is 0.174 nM (active) in the experiment on SN12C; 0.116 nM (active) in the experiment on SNB-19; 0.207 nM (active) in the experiment with SNB-75; 0.0439 nM (active) with T47D; 0.226 nM (active) in the experiment on TK-10.

For the origin of these results see ChEMBL document CHEMBL1201862, “PubChem BioAssay data set” (2004).
